Here are results for three molecules from article PMC8597046, “Use of Mixture Dosing and Nonlinear Mixed Effect Modeling of Eight Environmental Contaminants in Rabbits to Improve Extrapolation Value of Toxicokinetic Data” (Environmental Health Perspectives, 2021).

As a reminder, the MRT is a mean duration of stay, worked out from the concentration-time curve. By Cmax is commonly meant the peak of the concentration-time curve. As usually defined, the half-life is the time needed for the level to fall by half in the phase considered. As a reminder, the Tmax is the time from dosing to the highest level.

The nature of data set [1]: TK assay, intravenous mixture dosing: serum concentrations and noncompartmental analysis (sparse data). The note with it: IV mixture dosing, NCA, n=12. As for the experimental part:
(§1) The experiment was carried out on thirty 10-wk old female New Zealand white rabbits (INRA 1777 line) weighing 2.37±0.14kg . […] Blood samples were taken at the designated time points post IV and oral administration: 15 min, 30 min, 1 h, 2 h, 4 h, 8 h, 12 h, 24 h, 3 d, 7 d, and 28 d from groups of 3 or 6 rabbits at each sampling time. Each rabbit was sampled 3 times and 3 rabbits were sampled at each sampling time, except at 30 min post administration, when 6 samples were collected to provide a sufficient blood volume for assaying the compounds. The doses and assay time points were selected to allow the calculation of TK parameters (Table 1) based on preliminary TK data. Residual concentrations of the compounds, and their possible evolution over time, were determined by sampling six entirely untreated rabbits during the TK study on the day of drug administrations, then 14 d and 28 d later.
(§2) The volume administered was adjusted to the animal’s body weight (BW) recorded the day before.
(§3) Intravenous administrations were performed via an indwelling catheter (22G Terumo, 0.9×25mm ) just after its insertion into an ear vein. […] For oral administrations, the mixture of all compounds ( 4mL/kg ) was deposited directly in the mouth of rabbits using a catheter (22G BD Insyte 22G, 0.9×25mm ). Prior to the study, the rabbits had been trained to gradually swallow water and then corn oil.
(§4) Blood samples were collected from the auricular artery using a 20 G needle ( 0.9×25mm ) and a dry tube. The first two blood samples were 8–10mL in volume, whereas a large volume (about 20mL ) was obtained antemortem immediately after electrical stunning (95LX rabbit stunner; Burdis), followed by exsanguination.
(§5) Serum concentration-time profiles of the different compounds were first analyzed using a noncompartmental approach (NCA) involving a sparse data option. Sparse data methodology consists of calculating TK parameters based on the mean profile of all the subjects in the dataset and is appropriate when a rich data series cannot be obtained, as in the present experiment ([FDA 1999]). The area under the concentration time curve ( AUC0−tlast ) and the area under the first moment curve ( AUMC0−tlast ) from dosing time ( t=0 ) to the time of the last measurable concentration were calculated using the linear trapezoidal rule after IV and oral dosing. The area under the serum concentration time curve from dosing time to infinity ( AUC0−inf ) was obtained by adding to AUC0−tlast the area extrapolated from the time of the last measurable concentration to infinity by dividing the last quantifiable serum concentration by the slope of the terminal phase ( λZ ), as estimated by linear regression using the best fit option of Phoenix®.
(§6) The clearance (CL) and apparent clearance (CL_F) were respectively estimated after IV and oral administrations by dividing the administered dose by the AUC0−inf calculated for each analyte.
(§7) The terminal half-life (HL) was estimated with Equation 1: (1) HL=0.69315/λZ where λz is the slope of the terminal phase.
The mean residence time (MRT) was estimated using Equation 3: (3) MRT=AUMCiv0−tlast /AUCiv0−tlast , where AUCMiv0−tlast and AUCiv0−tlast are the values of AUMC0−tlast and AUC0−tlast obtained after IV dosing.
The steady-state volume of distribution ( VSS ) was estimated using Equation 4: (4) VSS=CL×MRT, with CL and MRT as defined above.

Data set [2] in a line: TK assay, oral mixture dosing: serum concentrations and noncompartmental analysis (sparse data). The note with it: oral mixture dosing, NCA, n=12. The procedure:
as §1, §2, §3, §4, §5, §6, §7
The oral bioavailability (F) was estimated using Equation 2: (2) F=AUCvo0−tlast×Doseiv/AUCiv0−tlast×Dosevo, where AUCiv0−tlast and AUCvo0-tlast are the values of AUC0−tlast obtained after IV and oral dosing, respectively, and Doseiv and Dosevo are the IV and oral doses.

Data set [3] can be described thus: Estimation of loading and daily maintenance doses and NLME model simulations. Set-up: species or system female rabbits. The following applies: oral; for Computed maintenance dose: daily; for Computed maintenance dose / Computed loading dose: scaled to the targeted CSS of Table 6. As for the experimental part:
The ultimate goal of this TK investigation was to compute a dosage regimen that allowed targeted steady-state serum concentrations to be attained rapidly for a planned TK/TD trial on the reprotoxic effect of a mixture of environmental contaminants in female rabbits. […] With that in mind, the loading and the daily maintenance doses of each compound were evaluated using Equations 12 and 13, respectively.
This risk was also the reason why the NLME model was employed to simulate the time development of the amounts of compounds in the central and peripheral compartments following administration of the daily maintenance dose of each compound over the same duration.
The loading and maintenance doses computed to ensure a nominal CSS of 1 ng/mL were scaled to determine the doses to be administrated by oral route to female rabbits to maintain the targeted CSS .

A short description of data set [4]: Nonlinear mixed effect (NLME) compartmental modeling of merged IV and oral serum concentrations. The text has this:
A nonlinear mixed effect (NLME) modeling approach was used to analyze simultaneously all data obtained from the different rabbits after both IV and oral administrations and to provide robust estimates of the typical TK parameters.
The primary parameters of the model, namely the volume of distribution of the central compartment (V1), the first-order rate constants ( K10 , K12 , K21 , and Kabs plus K13 , K31 for PFOA) and the bioavailability (F) and their associated precisions [standard error (SE)] were estimated by minimizing an objective function value (OFV) expressed as minus twice the log of the likelihood estimation ( −2LL ). […] Marginal likelihood was approximated by using the Laplacian engine by default and, when this engine was unable to determine the SE of the estimate, the Quasi-Random Parametric Expectation Maximization (QRPEM) was selected.
Between subject variability (BSV) of the parameters was measured using the exponential model θparameter_i=θtv_parameter×exp (ηi), where θparameter_i is the parameter estimated for the ith individual, θtv_parameter is the typical population value of the parameter, and ηi is the deviation associated with the ith individual from the corresponding value of the parameter at the population level.
The distribution of ηi was assumed to be normal with a mean of 0 and a variance ω² . BSV was reported as a coefficient of variation (CV) in the original scale CV(%)=100× exp (ω^2)−1 .
The residual variance was modeled using a combined additive and proportional error model Cobsij=Cpredij(1 + ε1ij) + ε2ij, where Cobsij and Cpredij are respectively the jth observed and predicted concentrations for the ith individual, and ε1ij and ε2ij are the multiplicative and additive residual errors.
Secondary parameters were calculated from the population primary parameters.
The clearance values (CL) were estimated using Equation 5: (5) CL=K10×V1, where V1 is the volume of the central compartment and K10 is the elimination rate constant from the central compartment.
The volume of the peripheral compartment (V2) was estimated with Equation 6: (6) V2=V1×(K12/K21), where K12 and K21 are the distribution rate constants between the central and the peripheral compartments.
The clearance of distribution (Q) was estimated using Equation 7: (7) Q=K12×V1, with […] and K12 as defined above.
The volume of distribution associated with the terminal phase was estimated with Equation 10: (10) VZ=CL/λZ, with λZ as defined above.
The AUC was computed as a secondary parameter using Equation 11: (11) AUC=Dose/CL.
The terminal half-life was estimated with Equation 1, as previously described.

Data set [5] is described as follows: Chronic exposure: daily oral mixture for 17 wk, steady-state serum concentrations. The note with it: serum, mean±SD, n=16, after 17 weeks of oral mixture; MEHP after DEHP dosing. As for the experimental part: The objective of this preliminary experiment was to check the ability of our approach to determine the loading and maintenance doses of the eight compounds to be administered simultaneously by oral route to reproduce in female rabbits targeted serum concentrations. The experiment was carried out on thirty-two 2-wk old female New Zealand white rabbits (INRA 1777 line) randomly allocated to a treatment and control groups of 16 rabbits weighing 309±45g and 298±62g , respectively. The treated rabbits were orally administrated a mixture of the eight compounds at a dosage corresponding to the sum of the loading and daily maintenance doses followed by daily administrations of the maintenance dose for 17 wk (see the “Estimation of the doses” section). The control group was orally administrated the vehicle for the same duration.
The volume of the maintenance dosing solution ( 1mL/kg ) was weekly adjusted to the mean BW estimated from the known pattern of growth of the INRA 1777 rabbit line. Oral dosing and antemortem blood sampling were performed as previously described.
Blood samples were left to clot for about 20–30 min at ambient temperature and centrifuged for 20 min at 3,000×g at 25°C. The separated serum was stored in glass tubes at −20°C until assayed.

The conditions of data set [6]: rodents; ref Chang et al. 2012; cited from earlier work.

For `O=C(O)[C@H]1O[C@@H](Oc2ccc(S(=O)(=O)c3ccc(O)cc3)cc2)[C@H](O)[C@@H](O)[C@@H]1O` [BPSG, bisphenol S glucuronide], the MRT is recorded as 3.16 h in data set [1] and 7.66 h in data set [2] (MEHP after oral DEHP). In addition, the “AUC0−inf” value in data set [1] (serum) turned out to be 5.18 µmol·h/L; in data set [2] (serum, MEHP after oral DEHP), 15.8 µmol·h/L. Moreover, the Cmax in data set [1] (serum, doses in Table 2 r3, BPSG after BPS dosing) was determined as 5.78 µM; in data set [2] (serum, doses in Table 3 r3, MEHP measured after oral DEHP, BPSG after BPS), 6.91 µM. The half-life turned out to be 3.80 h in data set [1] (terminal) and 4.23 h in data set [2] (terminal, MEHP after oral DEHP). Also, the Tmax in data set [2] (MEHP after oral DEHP) stood at 16.2 min.

`CCCCC(CC)COC(=O)c1ccccc1C(=O)OCC(CC)CCCC` (stereo not shown) [DEHP, di(2-ethylhexyl)phthalate]: in data set [3], the Computed maintenance dose was 780 µg/kg and the Computed loading dose was 264 µg/kg. Moreover, in data set [3] (to maintain serum concentration of 1 ng/mL, daily CL×Css/F, DEHP dose for MEHP in serum), the Daily maintenance dose was 13 µg/kg. Moreover, the Loading dose in data set [3] (to rapidly attain serum concentration of 1 ng/mL, Vss×Css/F, DEHP dose for MEHP in serum) was 4.4 µg/kg.

Consider `O=S(=O)(O)C(F)(F)C(F)(F)C(F)(F)C(F)(F)C(F)(F)C(F)(F)C(F)(F)C(F)(F)F` [PFOS, perfluorooctane sulfonate], for which, in data set [4] (NLME model), the “Oral bioavailability (F)” value is reported as 100%. For the same molecule, in data set [4] (population secondary parameter, mean), the Clearance entry is reported as “lower than 0.01 L/kg/h”. Besides, the “Observed CSS” value in data set [5] came to 154 ± 25 ng/mL. In addition, the Intestinal absorption in data set [6] is 117%. Further, in data set [3], the Computed maintenance dose is 1.3 µg/kg and the Computed loading dose was 60 µg/kg.
